Laboratory results taken from patent US8318455B2, “Inducible/regulated gene expression system in E coli” (priority 2007, dated 2012).
Where two headings read alike, the source gives them in different places.

Columns and labels:
[1] = system: GFP expression in host cells; assay: Plate assay: GFP expression, T7 system vs cumate system; assay type: cell-based, Escherichia coli; conditions: plates with IPTG (1 mM) or cumate (0.12 mM); FIG. 4
Method: Host cell transformation and gene expression. pNEW vectors harbouring different genes of interest were transformed into various E. coli cells by chemical or electroporation methods (Sambrook and Russell, 2000). The transformed cells were grown at 37° C. in LB medium, and expression of genes under developed system was induced with 20 μg/ml cumate or as indicated.
(§1) Detection of gene expression. Detection of GFP was carried out by fluorescence microscopy, and quantified by using a SPECTRAFluor Plus (TECAN Austria Gmbh, Grodïg, Austria) under excitation and emission wavelengths of 485 and 508 nm, respectively. Concentration of GFP was calculated based on a linear relationship between concentration and fluorescence units determined using solutions of purified GFP (Qbiogene). The biomass (X) was determined by cell dry weight measurement of the samples (Moisture Analyzer MA 30, Sartorius).
FIG. 4 depicts a comparison between T7 system and cumate system for GFP expression in plates containing IPTG (1 mM) and cumate (0.12 mM) as inducer, respectively.

[2] = system: GFP expression in E. coli BL21(DE3)pLysS; assay type: cell-based, Escherichia coli; conditions: for GFP yield / course of induced GFP expression (time of maximum): 100 μm inducer; for state of the induced culture (lysis, foaming): fermenter culture, after 8 hours post induction; for specific yield of GFP / total yield of GFP: defined medium A; for course of induced GFP expression (time of maximum): post induction, FIG. 10A
Method: Benchtop Fermentations. Batch fermentation experiments were carried out in a 14-I bioreactor (BioFlo 110, New Brunswick Scientific, Edison, N.J. USA) to compare GFP production yield between T7 expression system and cumate system. For the batch culture, pre-cultures were used to inoculate the bioreactor filled with 5 l of medium A (Yoon et al, 2003) and initial O.D. was adjusted to 0.1 for both expression systems. The cultures induced with IPTG for T7 system and cumate for cumate system when O.D. reached at 38 to 42. For cultures carried out in bioreactors, pH and dissolved oxygen were controlled at 7 and 25%, respectively.
as §1
All results obtained were in defined medium A. The value ‘x’ is dry weight in g/L.
All results obtained were in defined medium A.

[3] = 45 minutes post induction, FIG. 9C
[4] = 2 hours post induction, FIG. 9E
[5] = 3 hours post induction, FIG. 9F
[6] = inducer 100 μM, induction time 1 h
[7] = inducer 100 μM, induction time 2 h
[8] = inducer 100 μM, induction time 4 h
[9] = inducer 100 μM, induction time 5 h
[10] = inducer 100 μM, induction time 6 h
[11] = inducer 100 μM, induction time 7 h
[12] = inducer 100 μM, induction time 8 h
[13] = inducer 100 μM, induction time 9 h
[14] = inducer 1000 μM, induction time 1 h
[15] = inducer 1000 μM, induction time 2 h
[16] = inducer 1000 μM, induction time 4 h
[17] = inducer 1000 μM, induction time 5 h
[18] = inducer 1000 μM, induction time 6 h
[19] = inducer 1000 μM, induction time 7 h
[20] = inducer 1000 μM, induction time 8 h
[21] = inducer 1000 μM, induction time 9 h

CC(C)c1ccc(C(=O)O)cc1 [Cumate, p-cumate]
GFP expression on plates, comparison of systems [1]: dramatically outperforms the IPTG system | GFP yield [2, 3]: 30 mg/g | GFP yield ([2]; 1 hour post induction, FIG. 9D): 38 mg/g | GFP yield [2, 4]: 84 mg/g | GFP yield [2, 5]: 123 mg/g | cumate induced GFP yield relative to IPTG induced culture ([2]; cultures induced with 1000 μM IPTG or cumate): more than double | state of the induced culture (lysis, foaming) [2]: no lysis occurred | specific yield of GFP [2, 6]: 38 mg/g x | total yield of GFP [2, 6]: 602 mg/L | specific yield of GFP [2, 7]: 84 mg/g x | total yield of GFP [2, 7]: 644 mg/L | specific yield of GFP [2, 8]: 123 mg/g x | total yield of GFP [2, 8]: 3002 mg/L | specific yield of GFP [2, 9]: 164 mg/g x | total yield of GFP [2, 9]: 4719 mg/L | specific yield of GFP [2, 10]: 176 mg/g x | total yield of GFP [2, 10]: 5443 mg/L | specific yield of GFP [2, 11]: 165 mg/g x | total yield of GFP [2, 11]: 6194 mg/L | specific yield of GFP [2, 12]: 193 mg/g x | total yield of GFP [2, 12]: 6977 mg/L | specific yield of GFP [2, 13]: 222 mg/g x | total yield of GFP [2, 13]: 7838 mg/L | specific yield of GFP [2, 14]: 36 mg/g x | total yield of GFP [2, 14]: 486 mg/L | specific yield of GFP [2, 15]: 71 mg/g x | total yield of GFP [2, 15]: 1459 mg/L | specific yield of GFP [2, 16]: 110 mg/g x | total yield of GFP [2, 16]: 2851 mg/L | specific yield of GFP [2, 17]: 141 mg/g x | total yield of GFP [2, 17]: 4593 mg/L | specific yield of GFP [2, 18]: 149 mg/g x | total yield of GFP [2, 18]: 4885 mg/L | specific yield of GFP [2, 19]: 155 mg/g x | total yield of GFP [2, 19]: 5989 mg/L | specific yield of GFP [2, 20]: 249 mg/g x | total yield of GFP [2, 20]: 9666 mg/L | specific yield of GFP [2, 21]: 289 mg/g x | total yield of GFP [2, 21]: 11150 mg/L | course of induced GFP expression (time of maximum) [2]: > 8 h

CC(C)S[C@@H]1O[C@H](CO)[C@H](O)[C@H](O)[C@H]1O [IPTG, isopropyl-beta-D-thiogalactopyranoside]
GFP yield [2, 3]: 27 mg/g | GFP yield ([2]; 1 hour post induction, FIG. 9D): 37 mg/g | GFP yield [2, 4]: 74 mg/g | GFP yield [2, 5]: 90 mg/g | state of the induced culture (lysis, foaming) [2]: quickly began to lyse | specific yield of GFP [2, 6]: 37 mg/g x | total yield of GFP [2, 6]: 554 mg/L | specific yield of GFP [2, 7]: 74 mg/g x | total yield of GFP [2, 7]: 1300 mg/L | specific yield of GFP [2, 8]: 90 mg/g x | total yield of GFP [2, 8]: 1778 mg/L | specific yield of GFP [2, 9]: 96 mg/g x | total yield of GFP [2, 9]: 2486 mg/L | specific yield of GFP [2, 10]: 85 mg/g x | total yield of GFP [2, 10]: 2035 mg/L | specific yield of GFP [2, 11]: 58 mg/g x | total yield of GFP [2, 11]: 1567 mg/L | specific yield of GFP [2, 12]: 68 mg/g x | total yield of GFP [2, 12]: 1948 mg/L | specific yield of GFP [2, 13]: 67 mg/g x | total yield of GFP [2, 13]: 2090 mg/L | specific yield of GFP [2, 14]: 37 mg/g x | total yield of GFP [2, 14]: 606 mg/L | specific yield of GFP [2, 15]: 60 mg/g x | total yield of GFP [2, 15]: 1191 mg/L | specific yield of GFP [2, 16]: 83 mg/g x | total yield of GFP [2, 16]: 1966 mg/L | specific yield of GFP [2, 17]: 103 mg/g x | total yield of GFP [2, 17]: 2464 mg/L | specific yield of GFP [2, 18]: 118 mg/g x | total yield of GFP [2, 18]: 3340 mg/L | specific yield of GFP [2, 19]: 135 mg/g x | total yield of GFP [2, 19]: 4238 mg/L | specific yield of GFP [2, 20]: 145 mg/g x | total yield of GFP [2, 20]: 4079 mg/L | course of induced GFP expression (time of maximum) [2]: 4 h
